Data on three molecules can be found in US9149440B2, “Nanoparticles for drug-delivery” (UNIVERSITY OF SOUTH FLORIDA, priority 2003, dated 2015).

In one data set the test system is C. albicans. Briefly: Antifungal agar well diffusion, zones of inhibition. Format: cell-based. To be noted: Candida albicans; 50 μg, 48 hours; read-out: zone of growth inhibition, standard. How it is done: (§1) Antifungal testing of these nanoparticles was performed by Kirby-Bauer disc diffusion on agar plates against eight genera of fungi.
For data set [1], the system named is C. lusitaniae (ATCC 34449). The data set is described as above. Format: cell-based. To be noted: Clavispora lusitaniae, ATCC34449; 50 μg, 48 hours; read-out: zone of growth inhibition, standard. The method, then:
as §1

The subject of another data set is C. utilis (ATCC 29950). The description is as above. Format: cell-based. To be noted: Williopsis jadinii, ATCC29950; 50 μg, 48 hours; read-out: zone of growth inhibition, standard. How it is done:
as §1

For another data set, the system named is C. tropicalis. Described as above. Format: cell-based. The following applies: Candida tropicalis; 50 μg, 48 hours; read-out: zone of growth inhibition, standard.
In another data set the test system is C. glabrata (ATCC 15126). The data set is described as above. Format: cell-based. The following applies: Nakaseomyces glabratus, ATCC15126; 50 μg, 48 hours; read-out: zone of growth inhibition, standard.
In the next data set the test system is C. kefyr. The description is as above. Format: cell-based. The following applies: Kluyveromyces marxianus; 50 μg, 48 hours; read-out: zone of growth inhibition, standard.
The subject of another data set is C. krusei (ATCC 14243). Described as above. Format: cell-based. The following applies: Pichia kudriavzevii, ATCC14243; 50 μg, 48 hours; read-out: zone of growth inhibition, standard.
For data set [2], the system named is C. parapsilosis (ATCC 22019). The data set is described as above. Format: cell-based. To be noted: Lodderomyces parapsilosis, ATCC22019; 50 μg, 48 hours; read-out: zone of growth inhibition, standard.
Another data set is described as follows: Water solubility. Format: physicochemical.

A word on the zone of inhibition: it is the size of the clear area around the sample on an inoculated plate. Turning to `Clc1ccccc1C(c1ccccc1)(c1ccccc1)n1ccnc1` [clotrimazole], the zone of inhibition at 50 µg/disc in the data set on C. albicans is 20 mm; in data set [1] it was 25 mm; with C. utilis (ATCC 29950), 24 mm; in the data set with C. tropicalis, 20 mm; with C. glabrata (ATCC 15126), 14 mm; with C. kefyr, 37 mm. The zone of inhibition at 50 µg/disc in the data set with C. krusei (ATCC 14243) was determined as 27 mm; in data set [2], 32 mm.
As to `C=CC(=O)C1C(=O)N(SC)C1c1ccccc1Cl` (racemic) [N-methylthiolated β-lactam, 3-acryloyl-N-methylthio-4-(2-chlorophenyl)-2-azetidinone], the water solubility result in the data set “Water solubility” is given as “water-insoluble”.
As a reminder, the melting point is the temperature, or range, at which the solid turns liquid. `C=CC(=O)OC(C)OC(=O)c1c2ccccc2cc2ccccc12` (stereo not shown) yielded a melting point of 66 to 68 °C.
